Experimental data published in paper PMC9611977 (Toxins, 2022).
Bridge positions count the residues as written; N and C are the ends. Ends that are not written are not given here.

Key:
rat ASIC3 = molecular target: T1, rat ASIC3 (Rattus norvegicus, UniProt O35240); test: two-electrode voltage clamp on rASIC3 expressed in X. laevis oocytes; type: cell-based
T1 construct: expressed in transfected cells; host or cells: Xenopus laevis oocytes (cRNA injection)
T1 sequence (O35240 1-533): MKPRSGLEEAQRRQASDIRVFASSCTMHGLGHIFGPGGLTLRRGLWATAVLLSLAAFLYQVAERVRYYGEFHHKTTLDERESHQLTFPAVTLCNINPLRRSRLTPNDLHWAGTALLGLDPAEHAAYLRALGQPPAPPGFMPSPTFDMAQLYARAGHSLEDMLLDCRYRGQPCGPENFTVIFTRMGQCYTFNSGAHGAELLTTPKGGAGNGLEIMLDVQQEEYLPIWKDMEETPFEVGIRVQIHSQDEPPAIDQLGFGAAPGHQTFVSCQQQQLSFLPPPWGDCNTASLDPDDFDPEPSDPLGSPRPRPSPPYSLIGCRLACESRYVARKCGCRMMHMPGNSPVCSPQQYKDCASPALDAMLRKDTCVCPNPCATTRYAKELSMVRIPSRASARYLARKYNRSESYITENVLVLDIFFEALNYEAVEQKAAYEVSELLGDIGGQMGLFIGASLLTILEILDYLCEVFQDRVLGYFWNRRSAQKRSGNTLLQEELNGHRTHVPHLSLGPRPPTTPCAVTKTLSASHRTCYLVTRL
Description: (§1) Rat ASIC1a and ASIC3 channels were expressed in X. laevis oocytes after injection of 2.5–10 ng of cRNA, as previously described. After injection oocytes were kept for 2–3 days at 19 °C and then up to 5 days at the temperature of 15–16 °C in sterile ND96 medium (96 mM NaCl, 2 mM KCl, 1.8 mM CaCl2, 1 mM MgCl2, 5 mM HEPES titrated to pH 7.4 with NaOH supplemented with 50 μg/mL of gentamycin). Two-electrode voltage clamp recordings were performed using GeneClamp 500 amplifier (Axon Instruments, Burlingame, CA, USA). The data were filtered at 50 Hz and digitized at 1000 Hz by an AD converter L780 (LCard, Moscow, Russia) using in-house software (Moscow). The solutions were applied to a cell chamber (volume 50 μL). The laminar flow of an external solution of ND96 (pH 7.4) was used at a rate of 1 mL/min. ASIC1a and ASIC3 were activated by a short (1 s) application of a solution with a pH 5.5 (10 mM MES) using a fast application system. Peptides were applied 15 s before the activation pulse in a solution containing 0.1% BSA. A value of currents inhibition was calculated as the ratio of the peak current amplitude, when the peptide was applied to the average amplitude of the control peak currents before and after the peptide application and expressed as a percentage. To construct the concentration-response curves, a logistic equation was the following: y = ((1 − A)/(1 + ([C]/IC50)^nH)) + A; where y is the relative value of current inhibition; C is the peptide concentration; IC50 is the half maximal inhibitory concentration; nH is the Hill coefficient; A is an amplitude of maximum inhibition (% of control).

rat ASIC1a = test: two-electrode voltage clamp on rASIC1a expressed in X. laevis oocytes; type: cell-based; conditions: maximal applied concentration 100 μM; pH drop 7.4 to 5.5
Description: as §1, with “To construct the concentration-response curves, a logistic equation was the following: y = ((1 − A)/(1 + ([C]/IC50)^nH)) + A; where y is the relative value of current inhibition; C is the peptide concentration; IC50 is the half maximal inhibitory concentration; nH is the Hill coefficient; A is an amplitude of maximum inhibition (% of control).” left out

muscle α1β1δε nAChR = tested on: muscle α1β1δε nAChR; design: method as in PMID 16571968; conditions: read-out: EC50 of ACh for α1β1δε; cited from earlier work

GTPCKCLGYTGVYWFMITRCPNGHGYNLSCPYFLGVCCVKK (disulfide 4-37, 6-30, 20-38) [Hmg 1b-5]
IC50 (rat ASIC3): 13.8 ± 0.6 µM
maximal inhibitory effect on rASIC3 acid-induced current (rat ASIC3; 100 μM peptide, pH drop 7.4 to 5.5): about 78%
Hill coefficient nH, rASIC3 inhibition (rat ASIC3; logistic fit, n = 5): 1.22 ± 0.04
Iminimal, rASIC3 concentration-response fit (rat ASIC3; logistic fit, n = 5, amplitude of maximum inhibition (% of control)): 22.4 ± 1.3
inhibition of rASIC1a current (rat ASIC1a): 17%

CC(=O)OCC[N+](C)(C)C [ACh, acetylcholine]
EC50 (muscle α1β1δε nAChR): ~5 µM
